Measurements from patent US20060058328A1, “Use of N-aryl diazaspiracyclic compounds in the treatment of addiction” (priority 2004, published 2006).

What was measured:
α4β2 subtype = α4β2 subtype (Homo sapiens, UniProt P17787+P43681); test: In vitro pharmacology: antagonism at the α4β2 subtype; type: biochemical
Source text: (§1) Such disorders include substance abuse, tobacco use and weight gain that accompanies drug cessation.

[1] = test system: NNR subtypes affecting dopamine release; test: Antagonism of dopamine release; type: biochemical; conditions: in vitro
Experimental: Dopamine release was measured using the techniques described in U.S. Pat. No. 5,597,919 to Dull et al. Release is expressed as a percentage of release obtained with a concentration of (S)-(−)-nicotine resulting in maximal effects. Reported EC50 values are expressed in nM, and Emax values represent the amount released relative to (S)-(−)-nicotine on a percentage basis.
Antagonism of dopamine release can also be evaluated using the assays described in Gradyet al., “Characterization of nicotinic receptor mediated [3H]dopamine release from synaptosomes prepared from mouse striatum,” J. Neurochem. 59: 848-856 (1992) and Soliakov and Wonnacott, “Voltage-sensitive Ca^2+ channels involved in nicotinic receptor-mediated [3H]dopamine release from rat striatal synaptosomes,” J. Neurochem. 67:163-170 (1996).
as §1

rats = test: Fourteen-day preclinical safety pharmacology study; type: in vivo

Chain of α4β2 subtype (P43681 29-627 limits assumed): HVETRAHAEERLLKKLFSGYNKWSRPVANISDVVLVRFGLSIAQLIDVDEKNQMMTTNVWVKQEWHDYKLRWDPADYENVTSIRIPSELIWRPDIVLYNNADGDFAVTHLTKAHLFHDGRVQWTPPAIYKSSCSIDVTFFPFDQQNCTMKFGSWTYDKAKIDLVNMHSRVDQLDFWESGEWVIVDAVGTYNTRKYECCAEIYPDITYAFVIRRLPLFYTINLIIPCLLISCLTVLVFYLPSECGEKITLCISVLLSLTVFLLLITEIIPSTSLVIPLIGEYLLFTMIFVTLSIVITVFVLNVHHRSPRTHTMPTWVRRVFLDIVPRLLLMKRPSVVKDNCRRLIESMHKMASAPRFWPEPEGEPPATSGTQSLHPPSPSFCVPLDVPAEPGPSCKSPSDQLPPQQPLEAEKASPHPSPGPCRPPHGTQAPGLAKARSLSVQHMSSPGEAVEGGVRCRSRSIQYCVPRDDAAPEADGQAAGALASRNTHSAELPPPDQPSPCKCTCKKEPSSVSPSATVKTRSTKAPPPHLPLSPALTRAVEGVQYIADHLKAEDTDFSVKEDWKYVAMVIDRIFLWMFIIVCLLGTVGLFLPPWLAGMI
Chain of α4β2 subtype (P17787 26-502): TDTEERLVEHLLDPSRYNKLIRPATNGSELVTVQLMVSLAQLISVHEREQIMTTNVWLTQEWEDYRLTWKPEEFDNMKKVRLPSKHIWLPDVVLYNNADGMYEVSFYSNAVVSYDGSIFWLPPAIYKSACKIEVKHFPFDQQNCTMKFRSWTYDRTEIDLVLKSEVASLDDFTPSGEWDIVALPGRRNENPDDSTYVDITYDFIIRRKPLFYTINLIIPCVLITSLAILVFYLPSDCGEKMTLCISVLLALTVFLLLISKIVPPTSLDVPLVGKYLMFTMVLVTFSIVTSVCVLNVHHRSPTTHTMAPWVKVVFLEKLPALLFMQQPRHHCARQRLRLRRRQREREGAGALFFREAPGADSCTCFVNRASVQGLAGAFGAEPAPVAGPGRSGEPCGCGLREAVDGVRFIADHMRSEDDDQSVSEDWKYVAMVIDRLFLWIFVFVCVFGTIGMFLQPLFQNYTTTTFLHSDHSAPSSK

Imax, antagonist at the α4β2 subtype (α4β2 subtype): 50%
IC50 (α4β2 subtype; read-out: IC50, antagonist at the α4β2 subtype): 193 µM
IC50 ([1]; read-out: IC50, antagonist at NNR subtypes affecting dopamine release): 0.901 µM
SMILES: Cl.Cl.c1cncc(N2CCC3(CCCN3)C2)c1 (stereo not drawn) [Sample 1, 7-(3-pyridyl)-1,7-diazaspiro[4.4]nonane dihydrochloride]
Imax, antagonist at NNR subtypes affecting dopamine release [1]: 67%
stimulant sensitization properties (rats): without demonstrating stimulant sensitization properties
weight gain in rats (rats): reduced weight gain
